Results: PMC11596549 (Metabolites, 2024)
Where two headings read alike, the source gives them in different places.

How the values were obtained:
[1] = cited from earlier work; for change of serum concentrations of ARI and AM versus control group / effect on D-ARI concentration / higher mean dose-adjusted concentration of ARI: TDM database; for effect on D-ARI concentration / higher mean dose-adjusted concentration of ARI: ARI combined with the antidepressant
[2] = cited from earlier work
[3] = Pharmacokinetic drug interaction study: aripiprazole single dose alone or after 6-day bupropion pretreatment, LC-MS/MS quantification, non-compartmental analysis; details: for Vz_F / AUC(0-inf) / CL/F / Cmax / MRT / Tmax / k el: aripiprazole in rat plasma; for Vz_F / AUC(0-t) / AUC(0-inf) / CL/F / Cmax / MRT / Tmax / k el / half-life: mean ± S.D.; for AUC(0-t) / AUC(0-inf) / CL/F / Cmax / MRT / Tmax / k el / half-life: male, Wistar albino, rat, plasma, po, 8 mg/kg; for AUC(0-t): AUC0–30, aripiprazole in rat plasma; for AUC(0-inf): AUC0–∞; for CL/F: Cl_F; for k el: kel; for half-life: t1/2, aripiprazole in rat plasma
Method: The suspension was vortex-mixed before each administration. We considered 15 mg ARI a usual therapeutic dose in humans. We multiplied by 10 the dose for rats/kg, but a higher dose of 8 mg/kg body weight (b.w.) was chosen to be suitable for detection in rat plasma, considering the analytical method sensitivity. […] We administered 43 mg/kg b.w. in rats, multiplying the target dose in humans of 300 mg/day by 10.
Twenty-four Wistar albino male rats were divided into two groups.
The collection of blood samples was carried out using the BASi Culex ABC®-Automatic Blood Collector device (BASi, West Lafayette, IN, USA). This facilitated the collection of exact volumes per sample and at exact times post-administration. One day prior to blood sample collection, rats in both groups went through a surgical procedure consisting of a cannula insertion on the femoral vein under intramuscular anesthesia (0.1 mL/100 g b.w. of 1:1 ketamine and xylazine solution), which allowed the device to have access to the rats’ bloodstream. The excess blood drawn on the catheter was returned to the animal along with saline, replacing the volume of blood collected to avoid fluid depletion.
Blood samples, 200 μL each, were automatically drawn in heparinized Eppendorf tubes at 10, 20, 30, 45 min, 1, 1.5, 2, 2.5, 3, 4, 6, 8, 10, 12, 16, 20, 24 and 30 h after ARI single-dose administration in the two experimental groups, and they were immediately placed at −20 °C until further analysis.
Samples were precipitated using acetonitrile. For a 0.1 mL blood sample, 0.3 mL of acetonitrile were added. After the samples were vortex-mixed with IKA Vortex 2 (1000 rpm) for 10 s and centrifuged for 5 min at 10,000 rpm using a Sigma 3-30KS centrifuge (9168× g), the supernatant was injected into the HPLC system.
For concomitant quantification of ARI and D-ARI, a validated reverse-phase liquid chromatography coupled with tandem mass spectrometry (LC-MS/MS) method was developed. The HPLC system Agilent 1100 series with a binary pump, autosampler and thermostat (Agilent Technologies, Santa Clara, CA, USA) was used. The Bruker Ion Trap SL (Bruker Daltonics GmbH, Bremen, Germany) was used for detection. […] Haloperidol spiked into the thawed blood samples was used as an internal standard. The mobile phase consisted of water and 0.3% (m/v) formic acid as eluent A and acetonitrile as eluent B, eluted in a linear gradient (start with 20% acetonitrile, up to 2.5 min 38% acetonitrile, keep at 38% acetonitrile until 4.2 min, re-equilibrate with 20% acetonitrile for 2 min). The injection volume was 5 μL, the flow rate was 1 mL/min and the thermostat temperature was set at 40 °C. The MS detection was in multiple reaction monitoring mode (MRM), and the ESI-MS spectra were recorded in positive ion mode. The following mass transitions were used for analyte quantification: m/z 448 → m/z 285 for ARI, m/z 446 → m/z 285 for D-ARI and m/z 376 → m/z 165 for haloperidol. In these chromatographic conditions, the retention times were 2.80 min for haloperidol, 3.15 min for D-ARI and 3.55 min for ARI, respectively. The concentrations of the two analytes were determined by the instrument data system (QuantAnalysis software, Bruker Daltonics GmbH, Bremen, Germany) using peak area ratios versus concentration ratios of each analyte versus internal standard. The calibration curve model was determined for five calibration series by the linear least squares analysis, weighted (1/y2). […] The matrix effects were measured by comparing the response of the spiked plasma with the response of standards in solvent with the same concentration of ARI and D-ARI as in plasma, and for the measurement of the absolute recovery, a spike and a post-spiked sample were compared [31, 32].

[4] = ARI 8 mg/kg single dose after 6-day BUP 43 mg/kg pretreatment (test, n = 12)
[5] = ARI 8 mg/kg single dose alone (reference, n = 12)
[6] = rats, after BUP repeated doses vs ARI alone
[7] = co-medication, Japanese psychiatric patients

For `CN[C@H]1CC[C@@H](c2ccc(Cl)c(Cl)c2)c2ccccc21` [sertraline], the “change of serum concentrations of ARI and AM versus control group” value (from here on “change … of ARI and AM versus control group”) ([1]; co-medication) is given as “no significant influence”.

For `CNCCC(Oc1ccc(C(F)(F)F)cc1)c1ccccc1` (centres unmarked) [fluoxetine], the “effect on D-ARI concentration” value [1] is listed as “no effect”, the “higher mean dose-adjusted concentration of ARI” value [1] is listed as 45% and the “increase of the C/D ratio of ARI compared to ARI monotherapy” value ([1]; routine TDM service, concomitant use) is listed as 44%.

For `CC(NC(C)(C)C)C(=O)c1cccc(Cl)c1` (centres unmarked) [BUP, Bupropion], the oral bioavailability [2] is listed as 90%.

For `CNCC[C@H](Oc1cccc2ccccc12)c1cccs1` [duloxetine], the “increase of the plasma concentrations of ARI” value ([1]; large TDM database, co-medication) is given as 54.2%.

Molecule `O=C1CCc2ccc(OCCCCN3CCN(c4cccc(Cl)c4Cl)CC3)cc2N1` [Aripiprazole] has a Vz_F [3, 4] of 20.67 ± 27.53 L/kg, a Vz_F [3, 5] of 121.64 ± 143.94 L/kg and an AUC(0-t) [3, 4] of 5390 ± 2980 ng·h/mL. The AUC(0-t) [3, 5] was 1110 ± 931 ng·h/mL, the AUC(0-inf) [3, 4] was 6310 ± 2980 ng·h/mL and the AUC(0-inf) [3, 5] was 1120 ± 931 ng·h/mL. The CL/F [3, 4] was 26.2 mL/min/kg, the CL/F [3, 5] was 248 mL/min/kg and the Cmax [3, 4] was 472 ± 217 ng/mL. The Cmax [3, 5] was 240 ± 169 ng/mL, the MRT [3, 4] was 19.2 ± 27.7 h and the MRT [3, 5] was 4.63 ± 1.78 h. The Tmax [3, 4] was 6.92 ± 2.47 h, the Tmax [3, 5] was 1.65 ± 0.8 h and the k el [3, 4] was 5e-05 s⁻¹. The k el [3, 5] was 4.17e-05 s⁻¹, the half-life [3, 4] was 692 ± 1220 min and the half-life [3, 5] was 334 ± 188 min. For the same molecule, the “decrease of the apparent systemic clearance of ARI” value [3, 6] was “over 9 fold”, the “increase of the mean AUC0–30 of ARI” value [3, 6] was 4.85 fold and the “increase of the mean AUC0–∞ of ARI” value [3, 6] was 5.65 fold. For the same molecule, the “increase of the mean Cmax of ARI” value [3, 6] was 96.76%, the “increase of the mean Cmax of ARI” value ([3]; rats, after BUP repeated doses vs ARI alone, listed as ARI) was 2 fold and the “absolute oral bioavailability (F)” value [2] was 87%. For the same molecule, the “binding to plasma proteins” value [2] was greater than 99%, the “time to reach maximum plasma concentration” value [2] was 3 to 5 h and the “time to reach steady-state” value [2] was 14 days. For the same molecule, the “elimination t1/2” value ([2]; poor metabolizers (PMs)) was 146 h.

For `CN(C)CCC[C@@]1(c2ccc(F)cc2)OCc2cc(C#N)ccc21` [Escitalopram], the “change … of ARI and AM versus control group” value ([1]; co-medication) is listed as “slight but statistically significant” and the “change of the systemic exposure to the AM” value ([1]; co-medication with ARI) is listed as “did not significantly change”.

In the case of `Fc1ccc([C@@H]2CCNC[C@H]2COc2ccc3c(c2)OCO3)cc1` [paroxetine], the “effect on D-ARI concentration” value [1] is given as “no effect”, the “higher mean dose-adjusted concentration of ARI” value [1] is given as 45% and the “increase of the plasma concentrations of ARI” value [1, 7] is given as 1.7 fold. The “increase of the plasma concentrations of the active moiety (AM)” value [1, 7] was 1.5 fold.

In the case of `COc1ccc(C(CN(C)C)C2(O)CCCCC2)cc1` (centres unmarked) [venlafaxine], the “change … of ARI and AM versus control group” value ([1]; co-medication) is listed as “no significant influence”.
